Test results as given in US4504469A, “Vasotocin derivatives” (priority 1982, dated 1985).
Like-named read-outs stand apart in the source and are kept apart here. Where a SMILES comes first, the peptide text is derived from it. Bridges are numbered along the chain shown (N, C = ends). [ ]: non-standard residue; d: D form. Cit = NC(=O)NCCC[C@H](N)C(=O)O; Orn = NCCC[C@H](N)C(=O)O; Mpa = O=C(O)CCS

Key:
isolated rat uterus = format: cell-based
Method: The compounds according to the invention were investigated with regard to uterotonic potency on isolated rat uterus, using oxytocin as standard. The antagonistic properties of the compounds were also evaluated with the aid of this preparation. Also in vivo tests using oxytocin as the agonist were carried out, the results being compared with those obtained with Antocin.
Sprague Dawley rats (body weight approximately 250 g) in natural estrous were selected by vaginal smears. An approximately 20 mm long segment was cut from the middle of a uterine horn and mounted in an organ bath containing 10 ml of a modified Locke's solution of the following composition (mM:NaCl 153, KCl 5.63, CaCl2 0.541, NaHCO3 5.95 and glucose 2.78). The solution was gassed with 5% CO2 in oxygen at 30° C. The uterine contractions were allowed to stabilize for 30 min. Contractions were recorded isometrically at a resting tension of 1.5 g using Grass force transducers (Ft. 03). The antagonistic potency of the analogs was calculated as pA2 values (Rudinger, J. & Krejci, I. Experientia 18, (1962), 585-588). pA2 is a measure of the inhibitory effect of the peptide and was defined by Schild (Schild, H. O., British Journal of Pharmacology, 2, (1947), 189-206) as the negative logarithm of the molar concentration of an antagonist which reduces the effect of a dose of agonist to that of half the dose. The agonistic effects, if any, of the antagonists were investigated by adding to the bath containing the uterus preparation a varying amount of peptide corresponding at most to a concentration of 4 μg per ml.

rat uterus in vivo = experiment: In vivo inhibition of oxytocin-induced uterus contractions in rats, compared with Antocin; conditions: anaesthetized rats, oxytocin infusion i.v., antagonist 0.8-8.0 μg/100 g i.v.; Antocin given the value 1
Method: Sprague Dawley rats (250 g) in natural estrous were anaesthetized with Inactin (0.5 mg/100 g body weight i.p.). Myometrial activity was recorded by means of a catheter fixed in the uterine cavity and filled with modified Locke's solution. The catheter was connected to a Statham P23d transducer, and contractions were recorded on a Grass polygraph (model 7d). Oxytocin was infused intravenously (0.05 μg/min/100 g body weight). When a regular contraction pattern had been obtained, the antagonist (0.8-8.0 μg/100 g body weight) was administered intravenously in a volume of 0.2 ml. The recorded curve was integrated over 15 min intervals immediately before and after injection of the antagonist. The inhibition of the increase in the magnitude of the uterus contractions caused by oxytocin infusion were compared with the inhibition of the Antocin which was given the value 1.

Antidiuretic effect (AD) = experiment: Antidiuretic effect (AD); set-up: unit not given here
[1] = Pressor effect (effect on the blood pressure); set-up: reference not given here
[2] = isolated rat uterus, oxytocin as agonist, 30° C.

Row | Compound | Uterus in vitro antagonist pA2 (isolated rat uterus; [2]) | Uterus in vivo, compared with Antocin (rat uterus in vivo) | AD (antidiuretic effect) (Antidiuretic effect (AD)) | Pressor (effect on the blood pressure) [1] | Type of inhibition of the oxytocin effect (isolated rat uterus) | Uterus in vitro antagonist pA2 (isolated rat uterus)
1 | 1-β-mercaptopropionic acid-2-(4-ethoxy)-D-phenyl alanine-8-arginine vasotocin [Example 7] | 8.4 | 2 | 37.9 | 2.5 | – | –
2 | CCOc1ccc(C[C@H]2NC(=O)CCSSC[C@@H](C(=O)N3CCC[C@H]3C(=O)N[C@@H](CCCN)C(=O)NCC(N)=O)NC(=O)[C@H](CC(N)=O)NC(=O)[C@H]([C@@H](C)O)NC(=O)[C@H]([C@@H](C)CC)NC2=O)cc1 [Antocin, 1-desamino-(2-0-ethyltyrosine)-oxytocin, reference compound] ([Mpa][dY](Et)ITNCP[Orn]G-NH2; disulfide 1-6) | 7.2 | 1 | < 0.2 | < 0.1 | competitive inhibition | –
3 | CCOc1ccc(C[C@@H]2NC(=O)CCSSC[C@@H](C(=O)N3CCC[C@H]3C(=O)N[C@@H](CCCN)C(=O)NCC(N)=O)NC(=O)[C@H](CC(N)=O)NC(=O)[C@H](CCC(N)=O)NC(=O)[C@H]([C@@H](C)CC)NC2=O)cc1 [Example 1, 1-β-mercaptopropionic acid-2-(4-ethoxy)-phenyl alanine-8-ornithine-vasotocin] ([Mpa]Y(Et)IQNCP[Orn]G-NH2; disulfide 1-6) | – | – | – | – | – | 8.4
4 | CCOc1ccc(C[C@H]2NC(=O)CCSSC[C@@H](C(=O)N3CCC[C@H]3C(=O)N[C@@H](CCCNC(=N)N)C(=O)NCC(N)=O)NC(=O)[C@H](CC(N)=O)NC(=O)[C@H](CCC(N)=O)NC(=O)[C@H]([C@@H](C)CC)NC2=O)cc1 [Example 2, 1-β-mercaptopropionic acid-2-(4-ethoxy)-D-phenyl alanine-8-arginine vasotocin] ([Mpa][dY](Et)IQNCPRG-NH2; disulfide 1-6) | 8.7 | – | – | – | – | –
5 | CCOc1ccc(C[C@@H]2NC(=O)CCSSC[C@@H](C(=O)N3CCC[C@H]3C(=O)N[C@@H](CCCNC(N)=O)C(=O)NCC(N)=O)NC(=O)[C@H](CC(N)=O)NC(=O)[C@H](CCC(N)=O)NC(=O)[C@H]([C@@H](C)CC)NC2=O)cc1 [Example 3, 1-β-mercaptopropionic acid-2-(4-ethoxy)-phenyl alanine-8-citrullin vasotocin] ([Mpa]Y(Et)IQNCP[Cit]G-NH2; disulfide 1-6) | – | – | – | – | – | 8.5
6 | CCOc1ccc(C[C@@H]2NC(=O)CCSSC[C@@H](C(=O)N3CCC[C@H]3C(=O)N[C@@H](CCCNC(=N)N)C(=O)NCC(N)=O)NC(=O)[C@H](CC(N)=O)NC(=O)[C@H](C(C)C)NC(=O)[C@H]([C@@H](C)CC)NC2=O)cc1 [Example 4, 1-β-mercaptopropionic acid-2-(4-ethoxy)-phenyl alanine-4-valine-8-arginine vasotocin] ([Mpa]Y(Et)IVNCPRG-NH2; disulfide 1-6) | – | – | – | – | – | 8.5
7 | CCOc1ccc(C[C@@H]2NC(=O)CCSSC[C@@H](C(=O)N3CCC[C@H]3C(=O)N[C@@H](CCCNC(=N)N)C(=O)NCC(N)=O)NC(=O)[C@H](CC(N)=O)NC(=O)[C@H]([C@@H](C)O)NC(=O)[C@H]([C@@H](C)CC)NC2=O)cc1 [Example 5, 1-β-mercaptopropionic acid-2-(4-ethoxy)-phenyl alanine-4-treonine-8-arginine vasotocin] ([Mpa]Y(Et)ITNCPRG-NH2; disulfide 1-6) | 8.0 | – | – | – | – | –
8 | CCOc1ccc(C[C@@H]2NC(=O)CCSSC[C@@H](C(=O)N3CCC[C@H]3C(=O)N[C@@H](CCCN)C(=O)NCC(N)=O)NC(=O)[C@H](CC(N)=O)NC(=O)[C@H](C(C)C)NC(=O)[C@H]([C@@H](C)CC)NC2=O)cc1 [Example 6, 1-β-mercaptopropionic acid-2-(4-ethoxy)-phenyl alanine-4-valine-8-ornithine vasotocin] ([Mpa]Y(Et)IVNCP[Orn]G-NH2; disulfide 1-6) | – | – | – | – | – | 7.6
9 | CC[C@H](C)[C@@H]1NC(=O)[C@@H](Cc2c[nH]c3ccccc23)NC(=O)CCSSC[C@@H](C(=O)N2CCC[C@H]2C(=O)N[C@@H](CCCNC(=N)N)C(=O)NCC(N)=O)NC(=O)[C@H](CC(N)=O)NC(=O)[C@H](C(C)C)NC1=O [Example 8, 1-β-mercaptopropionic acid-2-D-tryptophane-4-valine-8-arginine vasotocin] ([Mpa][dW]IVNCPRG-NH2; disulfide 1-6) | – | 11 | 0.1 | 0.12 | – | 8.4
10 | CCOc1ccc(C[C@H]2NC(=O)CCSSC[C@@H](C(=O)N3CCC[C@H]3C(=O)N[C@H](CCCNC(=N)N)C(=O)NCC(N)=O)NC(=O)[C@H](CC(N)=O)NC(=O)[C@H](C(C)C)NC(=O)[C@H]([C@@H](C)CC)NC2=O)cc1 [Example 9, 1-β-mercaptopropionic acid-2-(4-ethoxy)-D-phenyl alanine-4-valine-8-D-arginine vasotocin] ([Mpa][dY](Et)IVNCP[dR]G-NH2; disulfide 1-6) | – | – | – | – | – | 8.6
11 | CCOc1ccc(C[C@H]2NC(=O)CCSSC[C@@H](C(=O)N3CCC[C@H]3C(=O)N[C@@H](CCCN)C(=O)NCC(N)=O)NC(=O)[C@H](CC(N)=O)NC(=O)[C@H](C(C)C)NC(=O)[C@H]([C@@H](C)CC)NC2=O)cc1 [Example 10, 1-β-mercaptopropionic acid-2-(4-ethoxy)-D-phenyl alanine-4-valine-8-ornithine vasotocin] ([Mpa][dY](Et)IVNCP[Orn]G-NH2; disulfide 1-6) | – | – | – | – | – | 7.9
12 | CCOc1ccc(C[C@H]2NC(=O)CCSSC[C@@H](C(=O)N3CCC[C@H]3C(=O)N[C@@H](CCCN)C(=O)NCC(N)=O)NC(=O)[C@H](CC(N)=O)NC(=O)[C@H]([C@@H](C)O)NC(=O)[C@H]([C@@H](C)CC)NC2=O)cc1 [Example 11, 1-β-mercaptopropionic acid-2-(4-ethoxy)-D-phenyl alanine-4-treonine-8-ornithine vasotocin] ([Mpa][dY](Et)ITNCP[Orn]G-NH2; disulfide 1-6) | 8.3 | – | – | – | – | –
13 | CC[C@H](C)[C@@H]1NC(=O)[C@@H](Cc2c[nH]c3ccccc23)NC(=O)CCSSC[C@@H](C(=O)N2CCC[C@H]2C(=O)N[C@H](CCCNC(=N)N)C(=O)NCC(N)=O)NC(=O)[C@H](CC(N)=O)NC(=O)[C@H]([C@@H](C)O)NC1=O [Example 12, 1-β-mercaptopropionic acid-2-D-tryptophane-4-treonine-8-D-arginine vasotocin] ([Mpa][dW]ITNCP[dR]G-NH2; disulfide 1-6) | 8.0 | 6.3 | 0.1 | 0.12 | – | –
14 | CC[C@H](C)[C@@H]1NC(=O)[C@@H](Cc2ccc(O)cc2)NC(=O)CCSSC[C@@H](C(=O)N2CCC[C@H]2C(=O)N[C@@H](CCCN)C(=O)NCC(N)=O)NC(=O)[C@H](CC(N)=O)NC(=O)[C@H](C(C)C)NC1=O [Example 13, 1-β-mercaptopropionic acid-2-D-tyrosine-4-valine-8-ornithine vasotocin] ([Mpa][dY]IVNCP[Orn]G-NH2; disulfide 1-6) | – | 4.4 | 1.2 | 0.6 | – | 8.2
15 | CC[C@H](C)[C@@H]1NC(=O)[C@@H](Cc2c[nH]c3ccccc23)NC(=O)CCSSC[C@@H](C(=O)N2CCC[C@H]2C(=O)N[C@@H](CCCN)C(=O)NCC(N)=O)NC(=O)[C@H](CC(N)=O)NC(=O)[C@H](C(C)C)NC1=O [Example 14, 1-β-mercaptopropionic acid-2-D-tryptophane-4-valine-8-ornithine vasotocin] ([Mpa][dW]IVNCP[Orn]G-NH2; disulfide 1-6) | – | 17.9 | 0.03 | 0.03 | – | 7.9
16 | CC[C@H](C)[C@@H]1NC(=O)[C@@H](Cc2c[nH]c3ccccc23)NC(=O)CCSSC[C@@H](C(=O)N2CCC[C@H]2C(=O)N[C@@H](CCCN)C(=O)NCC(N)=O)NC(=O)[C@H](CC(N)=O)NC(=O)[C@H]([C@@H](C)O)NC1=O [Example 15, 1-β-mercaptopropionic acid-2-D-tryptophane-4-treonine-8-ornithine vasotocin] ([Mpa][dW]ITNCP[Orn]G-NH2; disulfide 1-6) | – | 7.8 | 0.1 | 0.05 | – | 8.5
